Source: ChEMBL document CHEMBL3885861, “Open TG-GATES”

Species on record: Rattus norvegicus
Assay: Open TG-GATES - Regimen: Single
Format: toxicity, organism-based, Sprague-Dawley
Parameters: regimen Single, gender Male, age 6 weeks
Conditions: in vivo, po, 300 mg/kg, route gavage, dose level Middle; for APTT / Bas / Eos / Fbg / Hb / Ht / Lym / MCH / MCHC / MCV / Mono / Neu / PT / Plat / RBC / Ret / WBC: tissue Blood; for KIDNEY_L / KIDNEY_R / KIDNEY_TOTAL: tissue Kidney; for LIVER: tissue Liver; for A/G / ALP / ALT / AST / BUN / CRE / Ca / Cl / DBIL / GLC / IP / K / LDH / Na / PL / RALB / TBIL / TC / TG / TP / gamma-GTP: tissue Plasma

CC[C@@H](CO)NCCN[C@@H](CC)CO [ETHAMBUTOL]
TERMINAL_BW (3 h): 232.2 g
APTT (3 h): 22.9 s
Bas (3 h): 0%
Eos (3 h): 0.6%
Fbg (3 h): 301.8 mg/dL
Hb (3 h): 13.7 g/dL
Ht (3 h): 40.8%
Lym (3 h): 78%
MCH (3 h): 22 pg
MCHC (3 h): 33.6%
MCV (3 h): 65.5 fL
Mono (3 h): 2.8%
Neu (3 h): 18.2%
PT (3 h): 15.5 s
Plat (3 h): 120.7 x10_4/uL
RBC (3 h): 623.8 x10_4/ul
Ret (3 h): 8.5%
WBC (3 h): 63.4 x10_2/uL
KIDNEY_L (3 h): 1 g
KIDNEY_R (3 h): 1 g
KIDNEY_TOTAL (3 h): 2 g
LIVER (3 h): 10.9 g
A/G (3 h): 1.3
ALP (3 h): 1703.4 IU/L
ALT (3 h): 42.6 IU/L
AST (3 h): 68.2 IU/L
BUN (3 h): 12.2 mg/dL
CRE (3 h): 0.1 mg/dL
Ca (3 h): 10.3 mg/dL
Cl (3 h): 106.8 meq/L
DBIL (3 h): 0.002 mg/dL
GLC (3 h): 190 mg/dL
IP (3 h): 8.9 mg/dL
K (3 h): 3.8 meq/L
LDH (3 h): 187.2 IU/L
Na (3 h): 141 meq/L
PL (3 h): 137.4 mg/dL
RALB (3 h): 3 g/dL
TBIL (3 h): 0.02 mg/dL
TC (3 h): 78.2 mg/dL
TG (3 h): 54.2 mg/dL
TP (3 h): 5.4 g/dL
gamma-GTP (3 h): 1.6 IU/L
TERMINAL_BW (6 h): 224.6 g
APTT (6 h): 22.5 s
Bas (6 h): 0%
Eos (6 h): 1.2%
Fbg (6 h): 321.2 mg/dL
Hb (6 h): 14 g/dL
Ht (6 h): 41%
Lym (6 h): 75%
MCH (6 h): 21.5 pg
MCHC (6 h): 34.1%
MCV (6 h): 63.1 fL
Mono (6 h): 2.2%
Neu (6 h): 20.6%
PT (6 h): 15.6 s
Plat (6 h): 124.9 x10_4/uL
RBC (6 h): 649.8 x10_4/ul
Ret (6 h): 7.7%
WBC (6 h): 89.1 x10_2/uL
KIDNEY_L (6 h): 1 g
KIDNEY_R (6 h): 1 g
KIDNEY_TOTAL (6 h): 2 g
LIVER (6 h): 9.9 g
A/G (6 h): 1.1
ALP (6 h): 1416.2 IU/L
ALT (6 h): 39.4 IU/L
AST (6 h): 68.6 IU/L
BUN (6 h): 10 mg/dL
CRE (6 h): 0.1 mg/dL
Ca (6 h): 10.2 mg/dL
Cl (6 h): 106 meq/L
DBIL (6 h): 0.002 mg/dL
GLC (6 h): 183.6 mg/dL
IP (6 h): 9.1 mg/dL
K (6 h): 4.1 meq/L
LDH (6 h): 169 IU/L
Na (6 h): 141 meq/L
PL (6 h): 139.8 mg/dL
RALB (6 h): 2.9 g/dL
TBIL (6 h): 0.022 mg/dL
TC (6 h): 74.6 mg/dL
TG (6 h): 76.6 mg/dL
TP (6 h): 5.5 g/dL
gamma-GTP (6 h): 1.8 IU/L
TERMINAL_BW (9 h): 217.6 g
APTT (9 h): 23 s
Bas (9 h): 0%
Eos (9 h): 0.6%
Fbg (9 h): 334 mg/dL
Hb (9 h): 13.6 g/dL
Ht (9 h): 40.2%
Lym (9 h): 74.4%
MCH (9 h): 21.4 pg
MCHC (9 h): 33.7%
MCV (9 h): 63.5 fL
Mono (9 h): 1.8%
Neu (9 h): 22.2%
PT (9 h): 16.1 s
Plat (9 h): 122 x10_4/uL
RBC (9 h): 633.4 x10_4/ul
Ret (9 h): 7.8%
WBC (9 h): 74.5 x10_2/uL
KIDNEY_L (9 h): 1 g
KIDNEY_R (9 h): 1 g
KIDNEY_TOTAL (9 h): 2.1 g
LIVER (9 h): 9.7 g
A/G (9 h): 1.2
ALP (9 h): 1255.8 IU/L
ALT (9 h): 37 IU/L
AST (9 h): 68.2 IU/L
BUN (9 h): 9.6 mg/dL
CRE (9 h): 0.1 mg/dL
Ca (9 h): 10.4 mg/dL
Cl (9 h): 107 meq/L
DBIL (9 h): 0 mg/dL
GLC (9 h): 176.8 mg/dL
IP (9 h): 9.4 mg/dL
K (9 h): 3.9 meq/L
LDH (9 h): 139.4 IU/L
Na (9 h): 141.6 meq/L
PL (9 h): 136.8 mg/dL
RALB (9 h): 3 g/dL
TBIL (9 h): 0.036 mg/dL
TC (9 h): 78.6 mg/dL
TG (9 h): 53.4 mg/dL
TP (9 h): 5.6 g/dL
gamma-GTP (9 h): 1.8 IU/L
TERMINAL_BW (24 h): 235.9 g
APTT (24 h): 22 s
Bas (24 h): 0%
Eos (24 h): 1%
Fbg (24 h): 339.2 mg/dL
Hb (24 h): 13.7 g/dL
Ht (24 h): 39.7%
Lym (24 h): 81.6%
MCH (24 h): 22 pg
MCHC (24 h): 34.6%
MCV (24 h): 63.5 fL
Mono (24 h): 3%
Neu (24 h): 13.2%
PT (24 h): 15.9 s
Plat (24 h): 117.6 x10_4/uL
RBC (24 h): 625.8 x10_4/ul
Ret (24 h): 7.3%
WBC (24 h): 107.5 x10_2/uL
KIDNEY_L (24 h): 1.1 g
KIDNEY_R (24 h): 1.1 g
KIDNEY_TOTAL (24 h): 2.2 g
LIVER (24 h): 12.3 g
A/G (24 h): 1.2
ALP (24 h): 1520.4 IU/L
ALT (24 h): 46 IU/L
AST (24 h): 69.4 IU/L
BUN (24 h): 14.6 mg/dL
CRE (24 h): 0.1 mg/dL
Ca (24 h): 10.5 mg/dL
Cl (24 h): 105.2 meq/L
DBIL (24 h): 0 mg/dL
GLC (24 h): 187.4 mg/dL
IP (24 h): 8.5 mg/dL
K (24 h): 3.9 meq/L
LDH (24 h): 145.8 IU/L
Na (24 h): 141 meq/L
PL (24 h): 155.6 mg/dL
RALB (24 h): 3.1 g/dL
TBIL (24 h): 0.014 mg/dL
TC (24 h): 82.4 mg/dL
TG (24 h): 89.4 mg/dL
TP (24 h): 5.7 g/dL
gamma-GTP (24 h): 2 IU/L
